# From patent US12427144B2, “Compounds and methods for the targeted degradation of androgen receptor” (Arvinas Operations, Inc., priority 2019, dated 2025)
# Molecular target: T1, androgen receptor (Homo sapiens, UniProt P10275)
# T1 construct: endogenous in cells; host or cells: VCaP
# T1 sequence (P10275 1-920): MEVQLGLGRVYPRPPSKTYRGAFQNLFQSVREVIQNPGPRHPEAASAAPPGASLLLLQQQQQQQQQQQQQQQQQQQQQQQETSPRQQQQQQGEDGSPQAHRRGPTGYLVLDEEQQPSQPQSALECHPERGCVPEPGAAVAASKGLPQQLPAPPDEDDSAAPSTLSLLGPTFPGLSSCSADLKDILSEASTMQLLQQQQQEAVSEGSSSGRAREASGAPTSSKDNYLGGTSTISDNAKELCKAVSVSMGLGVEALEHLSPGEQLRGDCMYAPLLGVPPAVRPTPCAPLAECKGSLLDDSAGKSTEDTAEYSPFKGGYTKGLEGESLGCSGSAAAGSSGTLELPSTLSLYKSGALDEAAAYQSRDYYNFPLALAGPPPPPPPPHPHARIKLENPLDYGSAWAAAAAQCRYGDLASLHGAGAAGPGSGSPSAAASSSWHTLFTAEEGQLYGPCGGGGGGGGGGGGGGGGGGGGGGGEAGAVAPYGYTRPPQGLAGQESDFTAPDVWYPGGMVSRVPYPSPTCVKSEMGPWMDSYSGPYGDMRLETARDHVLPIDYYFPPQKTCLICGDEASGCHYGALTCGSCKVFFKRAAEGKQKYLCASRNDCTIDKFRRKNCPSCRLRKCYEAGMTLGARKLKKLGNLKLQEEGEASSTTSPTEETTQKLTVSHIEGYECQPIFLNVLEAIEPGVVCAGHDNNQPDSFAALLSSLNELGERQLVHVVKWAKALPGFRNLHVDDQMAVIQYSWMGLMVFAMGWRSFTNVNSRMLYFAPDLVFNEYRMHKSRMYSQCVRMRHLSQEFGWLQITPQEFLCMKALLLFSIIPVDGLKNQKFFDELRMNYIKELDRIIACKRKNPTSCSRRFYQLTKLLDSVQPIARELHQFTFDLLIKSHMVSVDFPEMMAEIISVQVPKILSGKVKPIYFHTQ
# Assay: AR ELISA assay (PathScan AR Sandwich ELISA), VCaP cells
# Format: cell-based
# Conditions: drug treatment 5 hours
# Experimental: Compounds were evaluated in this assay in LNCaP and/or VCaP cells utilizing similar protocols. The protocols used with VCaP cells are described below. The androgen receptor ELISA assay was performed using PathScan AR Sandwich ELISA (Cell Signaling Catalog #12850) according to the following assay steps:
# VCaP cells were seeded at 40,000 cells/well at a volume of 100 μL/well in VCaP assay medium [Phenol red free RPMI (Gibco Cat #11835-030); 5% Charcoal Stripped (Dextran treated) FBS (Omega Scientific, Cat #FB-04); 1% penstrep (Life Technologies, Gibco Cat #: 10378-016)] in Corning 3904 plates. The cells were incubated for a minimum of 3 days. Cells were dosed with PROTACs diluted in 0.01% DMSO and the drug treatment was allowed for 5 hours.
# AR ELISA (Cell Signaling) was performed as follows. 1× Cell Signaling Cell lysis buffer was made (Catalogue #9803; comes with the kit). Media from the treated wells is aspirated, and 100 μL 1× cell lysis buffer/well is added. The cells were placed on a shaker for 10 minutes at 4° C. Twenty microliters of lysate was transferred to 100 μl of Diluent in ELISA plate (0.15 μg/ml-[…]). The lysate-diluent mixture was shaken for 30 minutes at 37° C. Allow mouse AR antibody, anti-mouse antibody, TMB, and STOP solution to come to room temperature. The 1×ELISA buffer included in kit was made and loaded in the reservoir. Media from the plates was discarded, the ELISA plate tapped hard on paper towel, and washed 4×200 μl ELISA wash buffer using a plate washer.
# One-hundred (100) […] of mouse AR detection Ab was added; the plates were covered and shaken at 37° C. for 1 hour; media was discarded from the plates, the plates were tapped on a paper towel, washed 4× with 200 μL ELISA wash buffer with a plate washer.
# One-hundred (100) […] of anti-mouse—HRP conjugated Ab (comes with the kit) was added; the plates were covered and shaken at 37° C. for 30 minutes; the TMB reagent was allowed to come to room temperature; the media was discard from the plate, the plates were tapped on paper towel, washed 4× with 200 μL of ELISA wash buffer; the plates were tapped the plates on paper towel. One-hundred (100) L of TMB was added and the plates shaken for 2 minutes—while watching for color development. One-hundred (100) L Stop solution was added when light blue color developed. Plates were shaken and read at 450 nm.
# Progression of prostate cancer in patients treated with anti-androgen therapy usually involves one of several mechanisms of enhanced Androgen Receptor (AR) signaling, including increased intratumoral androgen synthesis, increased AR expression and AR mutations. PROTACs (PROteolysis TArgeting Chimera), which use bi-functional molecules that simultaneously bind a target of choice and an E3 ligase, cause ubiquitination via induced proximity and degradation of the targeted, pathological protein. As opposed to traditional target inhibition, which is a competitive process, degradation is a progressive process. As such, it is less susceptible to increases in endogenous ligand, target expression, or mutations in the target. Thus, this technology appears to be ideal for addressing the mechanisms of AR resistance in patients with prostate cancer. Data was analyzed and plotted using GraphPad Prism software.
Structure (SMILES),DC50 [nM],Dmax [%]
"CC1(C)[C@H](NC(=O)c2ccc(N3CCC(CN4CCN(c5ccc(C(=O)NC6CCC(=O)NC6=O)cc5)CC4)CC3)cc2)C(C)(C)[C@H]1Oc1ccc(C#N)c(Cl)c1 (stereo partly drawn) [Compound 7, N-((1R,3R)-3-(3-chloro-4-cyanophenoxy)-2,2,4,4-tetramethylcyclobutyl)-4-(4-((4-(4-((2,6-dioxopiperidin-3-yl)carbamoyl)phenyl)piperazin-1-yl)methyl)piperidin-1-yl)benzamide]",< 1,≥ 70
"CC1(C)[C@H](NC(=O)c2ccc(N3CCC(CN4CCN(c5ccc(C(=O)NC6CCC(=O)NC6=O)cc5)CC4)CC3)nn2)C(C)(C)[C@H]1Oc1ccc(C#N)c(Cl)c1 (stereo partly drawn) [Compound 3, N-[3-(3-chloro-4-cyanophenoxy)-2,2,4,4-tetramethylcyclobutyl]-6-[4-[(4-[4-[(2,6-dioxopiperidin-3-yl)carbamoyl]phenyl]piperazin-1-yl)methyl]piperidin-1-yl]pyridazine-3-carboxamide]",< 1,≥ 70
"Cc1cc(O[C@H]2C(C)(C)[C@H](NC(=O)c3ccc(N4CCC(CN5CCN(c6ccc(C(=O)NC7CCC(=O)NC7=O)cc6)CC5)CC4)nn3)C2(C)C)cc(C)c1C#N (stereo partly drawn) [Compound 2, N-((1R,3R)-3-(4-cyano-3,5-dimethylphenoxy)-2,2,4,4-tetramethylcyclobutyl)-6-(4-((4-(4-((2,6-dioxopiperidin-3-yl)carbamoyl)phenyl)piperazin-1-yl)methyl)piperidin-1-yl)pyridazine-3-carboxamide]",< 1,≥ 70
"CC(C)N(CC1CCN(c2cnc(C(=O)N[C@H]3C(C)(C)[C@H](Oc4ccc(C#N)c(Cl)c4)C3(C)C)cn2)CC1)[C@H]1C[C@H](Oc2cccc(C(=O)NC3CCC(=O)NC3=O)c2)C1 (stereo partly drawn) [Compound 9, N-((1R,3R)-3-(3-chloro-4-cyanophenoxy)-2,2,4,4-tetramethylcyclobutyl)-5-(4-((((1R,3R)-3-(3-((2,6-dioxopiperidin-3-yl)carbamoyl)phenoxy)cyclobutyl)(isopropyl)amino)methyl)piperidin-1-yl)pyrazine-2-carboxamide]",≥ 100,< 50
"Cc1cc(O[C@H]2C(C)(C)[C@H](NC(=O)c3cnc(N4CCC(CN(C(C)C)[C@H]5C[C@H](Oc6cccc(C(=O)NC7CCC(=O)NC7=O)c6)C5)CC4)nc3)C2(C)C)cc(C)c1C#N (stereo partly drawn) [Compound 11, N-((1R,3R)-3-(4-cyano-3,5-dimethylphenoxy)-2,2,4,4-tetramethylcyclobutyl)-2-(4-((((1R,3R)-3-(3-((2,6-dioxopiperidin-3-yl)carbamoyl)phenoxy)cyclobutyl)(isopropyl)amino)methyl)piperidin-1-yl)pyrimidine-5-carboxamide]",< 1,50 to 70
"Cc1cc(O[C@H]2C(C)(C)[C@H](NC(=O)c3cnc(N4CCC(CN(C(C)C)[C@H]5C[C@H](Oc6cccc(C(=O)NC7CCC(=O)NC7=O)c6)C5)CC4)cn3)C2(C)C)cc(C)c1C#N (stereo partly drawn) [Compound 15, 5-(4-[[(propan-2-yl)[(1r,3r)-3-[3-[(2,6-dioxopiperidin-3-yl)carbamoyl]phenoxy]cyclobutyl]amino]methyl]piperidin-1-yl)-N-[(1r,3r)-3-(4-cyano-3,5-dimethylphenoxy)-2,2,4,4-tetramethylcyclobutyl]pyrazine-2-carboxamide]",1 to 10,< 50
"CC1(C)[C@H](NC(=O)c2ccc(N3CCC(CN4CCN(c5cccc(C(=O)NC6CCC(=O)NC6=O)c5)CC4)CC3)cc2)C(C)(C)[C@H]1Oc1ccc(C#N)c(Cl)c1 (stereo partly drawn) [Compound 4, 3-(4-((1-(4-(((1R,3R)-3-(3-chloro-4-cyanophenoxy)-2,2,4,4-tetramethylcyclobutyl)carbamoyl)phenyl)piperidin-4-yl)methyl)piperazin-1-yl)-N-(2,6-dioxopiperidin-3-yl)benzamide]",< 1,< 50
"CC1(C)[C@H](NC(=O)c2ccc(N3CCC(CN4CCN(c5ccc(F)c(C(=O)NC6CCC(=O)NC6=O)c5)CC4)CC3)cc2)C(C)(C)[C@H]1Oc1ccc(C#N)c(Cl)c1 (stereo partly drawn) [Compound 8, 5-(4-((1-(4-(((1R,3R)-3-(3-chloro-4-cyanophenoxy)-2,2,4,4-tetramethylcyclobutyl)carbamoyl)phenyl)piperidin-4-yl)methyl)piperazin-1-yl)-N-(2,6-dioxopiperidin-3-yl)-2-fluorobenzamide]",< 1,< 50
"Cc1cc(O[C@H]2C(C)(C)[C@H](NC(=O)c3ccc(N4CCC(CN5CCN(c6ccc(F)c(C(=O)NC7CCC(=O)NC7=O)c6)CC5)CC4)cc3)C2(C)C)cc(C)c1C#N (stereo partly drawn) [Compound 6, 5-(4-((1-(4-(((1R,3R)-3-(4-cyano-3,5-dimethylphenoxy)-2,2,4,4-tetramethylcyclobutyl)carbamoyl)phenyl)piperidin-4-yl)methyl)piperazin-1-yl)-N-(2,6-dioxopiperidin-3-yl)-2-fluorobenzamide]",< 1,50 to 70
"Cc1cc(O[C@H]2C(C)(C)[C@H](NC(=O)c3ccc(N4CCC(CN5CCN(c6cncc(C(=O)NC7CCC(=O)NC7=O)c6)CC5)CC4)cc3)C2(C)C)cc(C)c1C#N (stereo partly drawn) [Compound 5, N-(2,6-dioxopiperidin-3-yl)-5-(4-[[1-(4-[[(1r,3r)-3-(4-cyano-3,5-dimethylphenoxy)-2,2,4,4-tetramethylcyclobutyl]carbamoyl]phenyl)piperidin-4-yl]methyl]piperazin-1-yl)pyridine-3-carboxamide]",< 1,< 50
"Cc1cc(O[C@H]2C(C)(C)[C@H](NC(=O)c3cnc(N4CCC(CN(C(C)C)[C@H]5C[C@H](Oc6ccc(C(=O)NC7CCC(=O)NC7=O)cc6)C5)CC4)cn3)C2(C)C)cc(C)c1C#N (stereo partly drawn) [Compound 13, N-((1R,3R)-3-(4-cyano-3,5-dimethylphenoxy)-2,2,4,4-tetramethylcyclobutyl)-5-(4-((((1R,3R)-3-(4-((2,6-dioxopiperidin-3-yl)carbamoyl)phenoxy)cyclobutyl)(isopropyl)amino)methyl)piperidin-1-yl)pyrazine-2-carboxamide]",1 to 10,50 to 70
"Cc1cc(O[C@H]2C(C)(C)[C@H](NC(=O)c3ccc(N4CCC(CN5CCN(c6ccnc(C(=O)NC7CCC(=O)NC7=O)c6)CC5)CC4)cc3)C2(C)C)cc(C)c1C#N (stereo partly drawn) [Compound 10, 4-(4-((1-(4-(((1R,3R)-3-(4-cyano-3,5-dimethylphenoxy)-2,2,4,4-tetramethylcyclobutyl)carbamoyl)phenyl)piperidin-4-yl)methyl)piperazin-1-yl)-N-(2,6-dioxopiperidin-3-yl)picolinamide]",< 1,50 to 70
